Experimental findings from patent US11345711B2, “8,9-dihydroimidazo[1,2-a]pyrimido[5,4-e]pyrimidin-5(6H)-ones” (IMPACT THERAPEUTICS (SHANGHAI), INC, priority 2016, dated 2022) are described below.

pIC50: −log10 of the molar value.

One experiment relates to LoVo cells. Put plainly: MTT based cell viability assay on LoVo cells. The note with it: Homo sapiens, LoVo, 72 h, 3 d, read-out: IC50, growth inhibition of LoVo cells. The procedure: Determination of the cell growth inhibiting activity of 6-(2-chlorophenyl)-2-((4-(4-methylpiperazin-1-yl)phenyl)amino)-8,9-dihydroimidazo[1,2-a]pyrimido[5,4-e]pyrimidin-5(6H)-one and analogs on LoVo cells using a MTT based cell viability assay
(§1) The thawed LoVo cells were cultured and passaged to the third generation, and the growth state was good and the confluence was about 90%, which began to be used in the experiment. The LoVo cells were digested with trypsin, centrifuged at 800 rpm for 5 min, the supernatant was discarded, resuspended with fresh culture medium, and counted. 6000 Cells are seeded to each well of a 96-well plate. The cells are incubated at 37° C. in a 5% CO2 cell culture incubator overnight. The tested sample (including the tested compound and the reference compound AZD1775) was diluted continuously to 8 concentrations (the last concentration was negative control of DMSO) with a 1:3 and 1:10 dilution in DMSO respectively: 10 μM, 3.3 μM, 1 μM, 0.33 μM, 0.1 μM, 0.033 μM, 0.01 μM, 0 μM (the final concentration of DMSO was 1%). 5 μL of each concentration was added to 120 μL of culture medium (25 times diluted), and the mixture was shaken well. The overnight cells were taken and the culture medium was removed, 195 μL of fresh culture medium was added to each well, and 5 μL of diluted culture medium containing the corresponding concentration of the tested sample was added respectively, and the culture plate was then placed in the 5% CO2 cell culture incubator at 37° C. for 3 d. After removing the original solution and adding 100 μL of fresh serum-free DMEM culture medium containing MTT (0.5 mg/mL) per well, the culture was continued. The original solution was removed after 4 hrs and 100 μl DMSO was added to each well. The 96-well cell culture plates were shaken away from light for 10 min and readed in a multifunctional reader at 552/630/690 nm to give absorption values (OD values). The data were analyzed using a commercial graphic software (Graph Pad Prism 5.0) and the inhibitory activity of the compound on cell proliferation was plotted in terms of cell survival and compound concentration. The IC50 values were fitted by the S-shaped dose-response curve equation as follows: Y=100/(1+10^(Log C-Log IC50)), where C was the concentration of testing compounds.

Another experiment concerns NCI-H1299 cells. In words: MTT based cell viability assay on NCI-H1299 cells. To be noted: Homo sapiens, NCI-H1299 cells, read-out: IC50, growth inhibition of NCI-H1299 cells. The procedure:
Determination of the cell growth inhibiting activity of 6-(2-chlorophenyl)-2-((4-(4-methylpiperazin-1-yl)phenyl)amino)-8,9-dihydroimidazo[1,2-a]pyrimido[5,4-e]pyrimidin-5(6H)-one and analogs on NCI-H1299 cells using a MTT based cell viability assay
as §1, with “NCI-H1299” for “LoVo”, “group,” for “medium,”, “1000” for “6000”, “1‰).” for “1%).”, “C−Log” for “C-Log”

In the next experiment the target is Wee1 (h) (Homo sapiens, UniProt P30291). Put plainly: Wee1 kinase (h) detection method, [γ-33P]-ATP filter assay. The class given is biochemical. As to the method:
Determination of the inhibitory effect of 6-(2-chlorophenyl)-2-((4-(4-methylpiperazin-1-yl)phenyl)amino)-8,9-dihydroimidazo[1,2-a]pyrimido[5,4-e]pyrimidin-5(6H)-one and Analogs on the Enzyme Activity of Wee1 Kinase by Using the Wee1 Kinase (h) Detection Method
Then the stock solution of all compounds under test with 50× concentration in 100% DMSO was added to make the final concentration of 10/1/0.1/0.01 μM, and then mixed the mixture well. The reaction is initiated by the addition of the Mg/ATP mix. After incubation for 40 minutes at room temperature, the reaction is stopped by the addition of phosphoric acid to a concentration of 0.5%. […] Each compound sample is duplicated in duplicate. The negative control was lack of all the components of Wee1 enzyme, and the positive was addition of 30% phosphoric acid to terminate the reaction. The Wee1 inhibitor AZD1775 was detected at 10 μM at the same experiment condition.

Sequence of Wee1 (h) (P30291 whole entry): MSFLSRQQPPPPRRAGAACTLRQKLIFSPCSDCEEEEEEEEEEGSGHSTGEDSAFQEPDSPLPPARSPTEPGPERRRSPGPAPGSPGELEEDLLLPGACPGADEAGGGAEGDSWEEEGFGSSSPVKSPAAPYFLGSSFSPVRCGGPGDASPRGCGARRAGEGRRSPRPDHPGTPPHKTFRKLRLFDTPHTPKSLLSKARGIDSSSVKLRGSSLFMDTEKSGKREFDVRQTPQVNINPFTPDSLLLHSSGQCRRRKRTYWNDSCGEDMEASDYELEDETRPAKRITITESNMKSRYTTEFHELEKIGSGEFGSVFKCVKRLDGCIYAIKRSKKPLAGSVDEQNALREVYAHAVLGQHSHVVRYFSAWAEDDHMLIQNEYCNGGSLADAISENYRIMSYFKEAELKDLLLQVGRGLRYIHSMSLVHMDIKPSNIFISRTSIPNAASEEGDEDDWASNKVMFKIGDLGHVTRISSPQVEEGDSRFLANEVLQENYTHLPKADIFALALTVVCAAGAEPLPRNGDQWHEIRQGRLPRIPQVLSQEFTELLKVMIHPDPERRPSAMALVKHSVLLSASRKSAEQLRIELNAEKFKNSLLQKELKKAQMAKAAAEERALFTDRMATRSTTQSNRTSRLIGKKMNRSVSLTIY

As usually defined, the pIC50 is the IC50 on a negative log10 scale, so that one unit is a factor of ten. For the compound `C=CCN1C(=O)c2cnc(Nc3ccc(N4CCN(C)CC4)cc3)nc2N2CCN=C12` [Example 22, 6-Allyl-2-((4-(4-methylpiperazin-1-yl)phenyl)amino)-8,9-dihydroimidazo[1,2-a]pyrimido[5,4-e]pyrimidin-5(6H)-one], the negative-log IC50 (pIC50) was less than 4.00 in the experiment with LoVo cells and less than 5.00 with NCI-H1299 cells. Also, the “Inh. (%) of Wee1 kinase enzyme activity” value at Wee1 (h) (C 1 μm compound) stood at 8%.
For `CN1CCN(c2ccc(Nc3ncc4c(n3)N3CCN=C3N(c3cccs3)C4=O)cc2)CC1` [Example 23, 2-((4-(4-Methylpiperazin-1-yl)phenyl)amino)-6-(thiophen-2-yl)-8,9-dihydroimidazo[1,2-a]pyrimido[5,4-e]pyrimidin-5(6H)-one] the same measures were less than 5.52, less than 5.00 and 22%.
The matching figures for `CN1CCN(c2ccc(Nc3ncc4c(n3)N3CC(C)(C)N=C3N(c3c(F)cccc3Cl)C4=O)cc2)CC1` [Example 27, 6-(2-Chloro-6-fluorophenyl)-8,8-dimethyl-2-((4-(4-methylpiperazin-1-yl)phenyl)amino)-8,9-dihydroimidazo[1,2-a]pyrimido[5,4-e]pyrimidin-5(6H)-one]: less than 4.00, less than 5.00 and 17%.
On to `CN1CCN(c2ccc(Nc3ncc4c(n3)N3C(=NCC3(C)C)N(c3c(F)cccc3Cl)C4=O)cc2)CC1` [Example 28, 6-(2-Chloro-6-fluorophenyl)-9,9-dimethyl-2-((4-(4-methylpiperazin-1-yl)phenyl)amino)-8,9-dihydroimidazo[1,2-a]pyrimido[5,4-e]pyrimidin-5(6H)-one], for which the pIC50 in the experiment with LoVo cells is less than 6.00; in the experiment with NCI-H1299 cells, less than 5.52. The “Inh. (%) of Wee1 kinase enzyme activity” value on Wee1 (h) (C 1 μm compound) is listed as 67%.
In the case of `C[C@@H]1CN(c2ccc(Nc3ncc4c(n3)N3CCN=C3N(c3c(F)cccc3Cl)C4=O)cc2)C[C@H](C)O1` [Example 32, 6-(2-Chloro-6-fluorophenyl)-2-((4-((2S,6R)-2,6-dimethylmorpholino)phenyl)amino)-8,9-dihydroimidazo[1,2-a]pyrimido[5,4-e]pyrimidin-5(6H)-one], the pIC50 is 6.08 with LoVo cells and less than 5.00 in the experiment on NCI-H1299 cells. Moreover, the “Inh. (%) of Wee1 kinase enzyme activity” value on Wee1 (h) (C 0.01 μm compound) is 19%; at Wee1 (h) (C 0.1 μm compound), 69%; at Wee1 (h) (C 1 μm compound), 94%.
As to `O=C1c2cnc(Nc3ccc(CN4CCOCC4)cc3)nc2N2CCN=C2N1c1c(F)cccc1Cl` [Example 33, 6-(2-Chloro-6-fluorophenyl)-2-((4-(morpholinomethyl)phenyl)amino)-8,9-dihydroimidazo[1,2-a]pyrimido[5,4-e]pyrimidin-5(6H)-one], the figures for the pIC50 in the experiment on LoVo cells and with NCI-H1299 cells were less than 4.00 and less than 5.00, respectively. Moreover, at Wee1 (h) (C 1 μm compound), the “Inh. (%) of Wee1 kinase enzyme activity” value is 87%.
For the compound `C[C@@H]1CN(c2ccc(Nc3ncc4c(n3)N3CCN=C3N(c3c(F)cccc3Cl)C4=O)cc2)C[C@H](C)N1C` [Example 34, 6-(2-Chloro-6-fluorophenyl)-2-((4-((3S,5R)-3,4,5-trimethylpiperazin-1-yl)phenyl)amino)-8,9-dihydroimidazo[1,2-a]pyrimido[5,4-e]pyrimidin-5(6H)-one], the pIC50 in the experiment with LoVo cells was 6.46; in the experiment with NCI-H1299 cells, 6.33. The “Inh. (%) of Wee1 kinase enzyme activity” value on Wee1 (h) (C 0.01 μm compound) came out at 38%; on Wee1 (h) (C 0.1 μm compound), 93%; on Wee1 (h) (C 1 μm compound), 97%.
Consider `CC(C)N1[C@H](C)CN(c2ccc(Nc3ncc4c(n3)N3CCN=C3N(c3c(F)cccc3Cl)C4=O)cc2)C[C@@H]1C` [Example 35, 6-(2-Chloro-6-fluorophenyl)-2-((4-((3S,5R)-4-isopropyl-3,5-dimethylpiperazin-1-yl)phenyl)amino)-8,9-dihydroimidazo[1,2-a]pyrimido[5,4-e]pyrimidin-5(6H)-one], for which the pIC50 was 6.58 in the experiment on LoVo cells and 6.54 in the experiment on NCI-H1299 cells. Also, the “Inh. (%) of Wee1 kinase enzyme activity” value was 27% at Wee1 (h) (C 0.01 μm compound), 82% at Wee1 (h) (C 0.1 μm compound) and 100% at Wee1 (h) (C 1 μm compound).
For `CN1CCN(c2ccc(Nc3ncc4c(n3)N3CCN=C3N(c3c(F)cccc3Cl)C4=O)c(F)c2)CC1` [Example 36, 6-(2-Chloro-6-fluorophenyl)-2-((2-fluoro-4-(4-methylpiperazin-1-yl)phenyl)amino)-8,9-dihydroimidazo[1,2-a]pyrimido[5,4-e]pyrimidin-5(6H)-one], the figures for the pIC50 in the experiment with LoVo cells and in the experiment on NCI-H1299 cells were less than 4.00 and less than 5.00, respectively. Besides, the “Inh. (%) of Wee1 kinase enzyme activity” value at Wee1 (h) (C 1 μm compound) is listed as 0%.
The matching figures for `C[C@@H]1CN(c2ccc(Nc3ncc4c(n3)N3CCN=C3N(c3c(F)cccc3Cl)C4=O)c(F)c2)C[C@H](C)N1C` [Example 37, 6-(2-Chloro-6-fluorophenyl)-2-((2-fluoro-4-((3S,5R)-3,4,5-trimethylpiperazin-1-yl)phenyl)amino)-8,9-dihydroimidazo[1,2-a]pyrimido[5,4-e]pyrimidin-5(6H)-one]: less than 4.00, less than 5.00 and 1%.
For `CN1CCN(c2ccc(Nc3ncc4c(n3)N3CCN=C3N(c3c(F)cccc3Cl)C4=O)c(Cl)c2)CC1` [Example 38, 6-(2-Chloro-6-fluorophenyl)-2-((2-chloro-4-(4-methylpiperazin-1-yl)phenyl)amino)-8,9-dihydroimidazo[1,2-a]pyrimido[5,4-e]pyrimidin-5(6H)-one], the pIC50 in the experiment on LoVo cells was less than 4.00; in the experiment with NCI-H1299 cells, less than 5.00. The “Inh. (%) of Wee1 kinase enzyme activity” value on Wee1 (h) (C 1 μm compound) worked out at 34%.
With `C[C@@H]1CN(c2ccc(Nc3ncc4c(n3)N3CCN=C3N(c3c(F)cccc3Cl)C4=O)c(Cl)c2)C[C@H](C)N1C` [Example 39, 6-(2-Chloro-6-fluorophenyl)-2-((2-chloro-4-((3S,5R)-3,4,5-trimethylpiperazin-1-yl)phenyl)amino)-8,9-dihydroimidazo[1,2-a]pyrimido[5,4-e]pyrimidin-5(6H)-one], the pIC50 with LoVo cells is less than 4.00; in the experiment with NCI-H1299 cells it was less than 5.00. The “Inh. (%) of Wee1 kinase enzyme activity” value at Wee1 (h) (C 1 μm compound) was determined as 28%.
